Results reported in patent publication US20100256086A1, “NON-HYDROLYZABLE NUCLEOSIDE DI- OR TRI-PHOSPHATE DERIVATIVES AND USES THEREOF” (priority 2007, published 2010).
Blank lines part the entries; values can stand above or below the molecule they belong to.

Legend:
[1] = tested on: perfused rat pancreas; conditions: cited from earlier work
[2] = Stability in human blood serum, Method A; assay type: in vitro ADME; conditions: human blood serum and RPMI-1640, 37° C.
Method: (§1) Preparation of the Human Blood Serum: Blood Taken from Healthy Volunteers was obtained from a blood bank (Tel-Hashomer hospital, Israel), stored for 12 h at 4° C. and centrifuged in plastic tubes at 1500 g for 15 min at room temperature. The serum was separated and stored at −80° C.
The assay mixture, containing a 40 mM nucleotide derivative solution in deionized water (4.5 μl), human blood serum (180 μl) and RPMI-1640 (540 μl), was incubated at 37° C. for 1, 4, 8, 16, 24, 48, 72 and 96 h. The samples were then treated with 0.6 M of hydrochloric acid (430 μl), centrifuged for 2 min (13,000 g, 4° C.), neutralized by addition of 4 M of KOH, centrifuged for 2 min (13,000 g, 4° C.) and freeze-dried. The stability of the nucleotide was evaluated by HPLC for monitoring possible dephosphorylation products. The mixture was separated on a Gemini analytic column (5u C-18 110A, 150×4.60 mm) with gradient elution [0.01 M KH2PO4 pH=4.5 (A)/acetonitrile (B), 100:0→60:40, A:B, 20 min for 2, 3A and 3B; 100:0→95:5, A:B, 10 min for ATP] and flow rate of 1 ml/min. The hydrolysis rate was determined by measuring the change in the integration of the respective HPLC peaks with time.

[3] = biological target: T1, turkey P2Y1 (Meleagris gallopavo, UniProt P49652); assay: Intracellular calcium measurement ([Ca2+]i, fura-2) in 1321N1 astrocytoma cells; assay type: cell-based; conditions: for activities at the P2YRs tested: P2Y1, P2Y2, P2Y4 and P2Y6 tested; for EC50: human 1321N1 astrocytoma cells expressing turkey P2Y1, read-out: Compound-induced activation of [Ca2+] EC50, P2Y1
T1 construct: expressed in transfected cells
Method: (§2) Human 1321N1 astrocytoma cells stably expressing the turkey P2Y1, human P2Y2, human P2Y4 or rat P2Y6 were grown in Dulbecco's modified Eagle's medium containing 5% (v/v) fetal bovine serum, 100 units/ml penicillin, 100 μg/ml streptomycin and 500 μg/ml Geneticin (G-418, Life Technologies, Inc). Changes in the intracellular free calcium concentration, [Ca^2+]i were detected by dual-excitation spectrofluorometric analysis of cell suspensions loaded with fura-2, as previously described (Garrad et al., 1998; Grynkiewicz et al., 1985). Cells were assayed in 10 mM Hepes-buffered saline (pH 7.4) containing 1 mM CaCl2 and 1 mM MgCl2. The cells were pelleted in a microfuge and resuspended in 2 ml of buffer. Concentration-response data were analyzed with the Prism curve fitting program (GraphPAD Software, San Diego, Calif.). Three experiments were conducted on separate days for each P2Y receptor subtype.
(§3) The activities of compounds 2, 4B, 17, 18, 19A, 21 (isomers A and B) were examined at the G protein-coupled P2YRs, P2Y1, P2Y2, P2Y4 and P2Y6 expressed in human 1321N1 astrocytoma cells, based on intracellular calcium measurements, as described in Experimental above. In particular, the activity of compound 2, 4B and 19 was examined at P2Y1R, P2Y2R, P2Y4R and P2Y6R, and the activity of compounds 17, 18 and 21 was examined at P2Y1R only. The experiments were conducted by Prof. Gary A. Weisman from Columbia-Missouri University, Columbia, Mo., USA.

[4] = cited from earlier work
[5] = tested on: ecto-nucleotidases; conditions: muscle strips preparations, 60 min incubation; cited from earlier work
[6] = Stability in human blood serum, Method B; assay type: in vitro ADME; conditions: human blood serum and RPMI-1640, 37° C.
Method: as §1
The assay mixture, containing a 40 mM nucleotide derivative solution in deionized water (4.5 μl), human blood serum (180 μl) and RPMI-1640 (540 μl), was incubated at 37° C. for 1, 4, 8, 16, 24, 48, 72, 96, 120 and 144 h. The samples were then heated to 80° C. for 30 min, treated with CM Sephadex (1-2 mg) for 2 h, centrifuged for 6 min (12,000 rpm) and extracted with chloroform (2×500 μl). The aqueous layer was freeze-dried. The stability of the nucleotide was evaluated by HPLC for monitoring possible dephosphorylation products. The mixture was separated on a Gemini analytic column (5u C-18 110A, 150×4.60 mm) with gradient elution [100 mM TEAA, pH 7 (A)/MeOH (B), 79:21, A:B, 15 min for 4A and 4B; 100 mM TEAA, pH 7 (A)/acetonitryl (B), A:B, 10 min, 100:0→90:10 A:B 10 min, 90:10→80:20 A:B 4 min, 80:20 A:B 1 min for ATP] and flow rate of 1 ml/min. The hydrolysis rate was determined by measuring the change in the integration of the respective HPLC peaks with time.

[7] = biological target: T2, human P2Y2 (Homo sapiens, UniProt P41231); assay: Intracellular calcium measurement ([Ca2+]i, fura-2) in 1321N1 astrocytoma cells; assay type: cell-based; parameters: key to Compound-induced activation of [Ca2+], P2Y2, response class: sr = slight response at 100 μM; nr = no response
T2 construct: expressed in transfected cells
Method: as §2, §3

[8] = pKa and degree of ionization of terminal phosphonate/phosphate; assay type: physicochemical; conditions: assay conditions, pH 7.4
[9] = biological target: T3, human P2Y4 (Homo sapiens, UniProt P51582); assay: Intracellular calcium measurement ([Ca2+]i, fura-2) in 1321N1 astrocytoma cells; assay type: cell-based; parameters: key to Compound-induced activation of [Ca2+], P2Y4, response class: sr = slight response at 100 μM; nr = no response; conditions: 1321N1 cells expressing human P2Y4
T3 construct: expressed in transfected cells
Method: as §2, §3

[10] = biological target: T4, rat P2Y6 (Rattus norvegicus, UniProt Q63371); assay: as above; assay type: cell-based; parameters: key to Compound-induced activation of [Ca2+], P2Y6, response class: sr = slight response at 100 μM; nr = no response; conditions: for agonistic effect on P2Y6R: at 100 μM
T4 construct: expressed in transfected cells
Method: as §2, §3

[11] = Stability in human blood serum (Example 10)
[12] = biological target: T5, calf intestine alkaline phosphatase (Bos taurus, UniProt P19111); assay: Enzymatic stability to alkaline phosphatase; assay type: in vitro ADME; conditions: 37° C., as in Example 6
T5 construct: purchased Fermentas Inc., Glen Burnie, Md
Method: Enzyme activity was measured by the release of p-nitrophenol from the nucleotide derivatives using a UV-vis spectrophotometer at 405 nm. Relative activity and resistance of nucleotides to enzymatic hydrolysis were determined at 37° C. Briefly, 32.5 μl of nucleotide derivative (77 μg/ml in 0.1 M Tris-HCl and 0.1 M MgCl2, pH 7.5) and 6 μl of deionized water were incubated with calf intestine alkaline phosphatase (Fermentas Inc., Glen Burnie, Md., 1 unit/μl, 6.25 μl at 37° C. final pH=9.8). After 30 min, the reaction was stopped by incubation at 80° C. for 30 min. The stability of the nucleotide derivative was evaluated by HPLC to monitor possible dephosphorylation products. The mixture was separated on a Gemini analytic column (5u C-18 110A, 150×4.60 mm) using gradient elution with Solvent System I (see Example 1) at 90:10 to 70:30 A:B for 3A and 3B, and 82:18 to 50:50 for 4A, 4B and 2 over 20 min and at a flow rate of 1 ml/min.

[13] = 1321N1 cells expressing human P2Y2
[14] = 1321N1 cells expressing rat P2Y6

T2 sequence (P41231 whole entry): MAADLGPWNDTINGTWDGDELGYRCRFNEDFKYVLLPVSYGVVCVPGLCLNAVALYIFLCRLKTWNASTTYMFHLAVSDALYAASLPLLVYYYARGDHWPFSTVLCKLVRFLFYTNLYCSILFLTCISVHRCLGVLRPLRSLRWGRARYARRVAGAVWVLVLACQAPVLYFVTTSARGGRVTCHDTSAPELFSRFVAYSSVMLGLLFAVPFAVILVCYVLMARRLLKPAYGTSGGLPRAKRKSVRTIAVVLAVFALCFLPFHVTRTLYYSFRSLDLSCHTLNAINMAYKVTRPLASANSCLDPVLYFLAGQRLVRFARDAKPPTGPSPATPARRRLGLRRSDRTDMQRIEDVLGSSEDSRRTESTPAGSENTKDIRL
T3 sequence (P51582 whole entry): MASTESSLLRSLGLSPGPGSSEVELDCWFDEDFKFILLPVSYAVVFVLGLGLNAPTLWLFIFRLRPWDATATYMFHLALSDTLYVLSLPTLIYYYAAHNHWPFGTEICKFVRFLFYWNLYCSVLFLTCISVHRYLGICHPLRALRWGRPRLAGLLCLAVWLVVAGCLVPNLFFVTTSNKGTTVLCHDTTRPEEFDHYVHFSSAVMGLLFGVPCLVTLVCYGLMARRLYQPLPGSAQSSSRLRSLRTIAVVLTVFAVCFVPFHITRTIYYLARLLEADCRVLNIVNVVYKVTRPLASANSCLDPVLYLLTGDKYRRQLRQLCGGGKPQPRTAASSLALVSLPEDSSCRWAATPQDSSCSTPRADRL
T4 sequence (Q63371 whole entry): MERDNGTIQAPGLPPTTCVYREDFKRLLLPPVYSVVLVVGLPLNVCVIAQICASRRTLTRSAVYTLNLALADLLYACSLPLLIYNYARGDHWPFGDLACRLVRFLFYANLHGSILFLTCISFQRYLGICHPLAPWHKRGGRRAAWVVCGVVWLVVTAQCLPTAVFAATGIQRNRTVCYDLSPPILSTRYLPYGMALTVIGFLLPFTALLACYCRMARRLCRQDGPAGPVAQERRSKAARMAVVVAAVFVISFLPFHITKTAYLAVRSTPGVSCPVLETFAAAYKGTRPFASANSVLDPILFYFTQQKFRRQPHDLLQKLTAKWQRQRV
T1 sequence (P49652 whole entry): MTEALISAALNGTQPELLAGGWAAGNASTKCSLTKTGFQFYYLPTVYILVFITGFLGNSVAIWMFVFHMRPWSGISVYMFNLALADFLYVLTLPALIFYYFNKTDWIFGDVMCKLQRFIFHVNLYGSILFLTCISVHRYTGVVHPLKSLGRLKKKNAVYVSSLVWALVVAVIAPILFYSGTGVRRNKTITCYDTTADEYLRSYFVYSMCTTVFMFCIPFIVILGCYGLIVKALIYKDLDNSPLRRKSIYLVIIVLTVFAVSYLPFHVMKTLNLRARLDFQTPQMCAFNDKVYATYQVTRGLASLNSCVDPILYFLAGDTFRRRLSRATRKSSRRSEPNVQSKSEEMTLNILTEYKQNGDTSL
T5 sequence (P19111 20-506): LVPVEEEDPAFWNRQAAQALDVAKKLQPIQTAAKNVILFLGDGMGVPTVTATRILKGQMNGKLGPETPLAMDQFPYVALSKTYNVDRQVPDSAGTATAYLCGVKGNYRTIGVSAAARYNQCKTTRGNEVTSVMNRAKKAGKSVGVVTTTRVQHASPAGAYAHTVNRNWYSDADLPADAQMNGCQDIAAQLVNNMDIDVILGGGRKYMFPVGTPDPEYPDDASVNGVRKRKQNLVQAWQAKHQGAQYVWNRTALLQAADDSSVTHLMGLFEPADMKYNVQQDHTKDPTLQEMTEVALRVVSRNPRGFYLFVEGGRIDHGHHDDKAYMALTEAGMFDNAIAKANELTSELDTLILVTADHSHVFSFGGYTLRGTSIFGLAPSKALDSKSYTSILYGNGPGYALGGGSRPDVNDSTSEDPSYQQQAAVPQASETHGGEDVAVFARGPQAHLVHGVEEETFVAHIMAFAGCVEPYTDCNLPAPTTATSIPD

Molecule: 2-MeS-ATP-α-B [Compound 1]
enhancement of insulin secretion as compared to basal secretion [1]: 9 fold
EC50 ([1]; read-out: EC50 of insulin secretion): 28 nM

Molecule: B[P@](=O)(OC[C@H]1O[C@@H](n2cnc3c(N)ncnc32)[C@H](O)[C@@H]1O)OP(=O)(O)CP(=O)(O)O (single isomer, unassigned) [Compound 3A, Adenosine-β,γ-CH2-5′-O-(1-boranotriphosphate)]
half-life in human blood serum [2]: 14.1 h
activity at P2Y1R, in words [3]: practically inactive
activities at the P2YRs tested [3]: insignificant activities

Molecule: BP(=O)(OC[C@H]1O[C@@H](n2cnc3c(N)nc(SC)nc32)[C@H](O)[C@@H]1O)OP(=O)(O)C(Cl)(Cl)P(=O)(O)O (single isomer, unassigned) [Compound 21, 2MeS-adenosine-β,γ-CCl2-5′-O-(1-boranotriphosphate)]
pKa value of the terminal phosphonate [4]: about 6.7

Molecule: BP(=O)(OC[C@H]1O[C@@H](n2cnc3c(N)nc(SC)nc32)[C@H](O)[C@@H]1O)OP(=O)(O)C(Cl)(Cl)P(=O)(O)O (single isomer, unassigned) [Compound 21A, 2MeS-adenosine-β,γ-CCl2-5′-O-(1-boranotriphosphate)]
EC50 [3]: 570 nM

Molecule: BP(=O)(OC[C@H]1O[C@@H](n2cnc3c(N)nc(SC)nc32)[C@H](O)[C@@H]1O)OP(=O)(O)C(Cl)(Cl)P(=O)(O)O (single isomer, unassigned) [Compound 21B, 2MeS-adenosine-β,γ-CCl2-5′-O-(1-boranotriphosphate)]
EC50 [3]: 1200 nM

Molecule: Nc1ncnc2c1ncn2[C@@H]1O[C@H](COP(=O)(O)OP(=O)(O)OP(=O)(O)O)[C@@H](O)[C@H]1O [ATP, reference compound]
half-life in human blood serum [2]: 3.6 h
degradation by ecto-nucleotidases [5]: completely dephosphorylated
half-life in human blood serum [6]: 7.7 h

Molecule: CSc1nc(N)c2ncn(C3OC(COP(=O)(O)OP(=O)(O)CP(=O)(O)O)C(O)C3O)c2n1 (stereo not drawn) [Compound 2, β,γ-CH2-2MeS-adenosine-5′-triphosphate]
activity at P2Y2R, in words [7]: inactivity
Compound-induced activation of [Ca2+], P2Y2, response class [7, 13]: nr
half-life in human blood serum [2]: 12.7 h
EC50 [3]: 80 nM
fraction ionized [8]: 9%
degradation by ecto-nucleotidases [5]: no degradation
Compound-induced activation of [Ca2+], P2Y4, response class [9]: nr
Compound-induced activation of [Ca2+], P2Y6, response class [10, 14]: sr
agonistic effect on P2Y6R [10]: slight agonistic effect

fraction ionized [8]: 91%
Molecule: CSc1nc(N)c2ncn([C@@H]3O[C@H](COP(=O)(O)OP(=O)(O)O)[C@@H](O)[C@H]3O)c2n1 [Compound 2-MeS-ADP, 2-MeS-ADP, reference compound]

Molecule: B[P@](=O)(OC[C@H]1O[C@@H](n2cnc3c(N)nc(SC)nc32)[C@H](O)[C@@H]1O)OP(=O)(O)CP(=O)(O)O [Compound 4A, 2MeS-adenosine-β,γ-CH2-5′-O-(1-boranotriphosphate)]
activity at P2Y2R, in words [7]: inactivity
activities at the P2YRs tested [3]: insignificant activities

Molecule: B[P@](=O)(OC[C@H]1O[C@@H](n2cnc3c(N)nc(SC)nc32)[C@H](O)[C@@H]1O)OP(=O)(O)CP(=O)(O)O [Compound 4B, 2MeS-adenosine-β,γ-CH2-5′-O-(1-boranotriphosphate)]
Compound-induced activation of [Ca2+], P2Y2, response class [7, 13]: nr
EC50 [3]: 17200 nM
half-life in human blood serum [6]: 71.9 h
Compound-induced activation of [Ca2+], P2Y4, response class [9]: nr
Compound-induced activation of [Ca2+], P2Y6, response class [10, 14]: sr
agonistic effect on P2Y6R [10]: slight agonistic effect

Molecule: CSc1nc(N)c2ncn([C@@H]3O[C@H](COP(=O)(O)C(Cl)(Cl)P(=O)(O)O)[C@@H](O)[C@H]3O)c2n1 [Compound 17, 2-MeS-adenosine-5′-dichloromethylene-diphosphate]
pKa value of the terminal phosphonate [4]: about 6.7
EC50 [3]: 3100 nM

Molecule: CSc1nc(N)c2ncn([C@@H]3O[C@H](COP(=O)(O)C(F)(F)P(=O)(O)O)[C@@H](O)[C@H]3O)c2n1 [Compound 18, 2-MeS-adenosine-5′-difluoromethylene-diphosphate]
pKa value of the terminal phosphonate [4]: about 6.7
EC50 [3]: 980 nM

Molecule: [BH3-]P(=O)(OC[C@H]1O[C@@H](n2cnc3c(N)nc(SC)nc32)[C@H](O)[C@@H]1O)OP(=O)([O-])[O-].[Na+].[Na+].[Na+] (some centres unmarked) [Compound 19A, 2MeS-adenosine-5′-O-(Pα-borano) diphosphate]
Compound-induced activation of [Ca2+], P2Y2, response class [7, 13]: nr
half-life in human blood serum ([11]; Example 10): > 24 h
percentage of the compound hydrolyzed ([11]; human blood serum, after 24 h): 25-40%
EC50 [3]: 38 nM
t1/2 to alkaline phosphatase [12]: about 6 h
Compound-induced activation of [Ca2+], P2Y4, response class [9]: nr
Compound-induced activation of [Ca2+], P2Y6, response class [10, 14]: nr

EC50 ([10]; 1321N1 cells expressing rat P2Y6, read-out: Compound-induced activation of [Ca2+] EC50, P2Y6): 200 ± 60 nM
Molecule: O=c1ccn([C@@H]2O[C@H](COP(=O)(O)OP(=O)(O)O)[C@@H](O)[C@H]2O)c(=O)[nH]1 [UDP, reference compound]

EC50 ([7]; 1321N1 cells expressing human P2Y2, read-out: Compound-induced activation of [Ca2+] EC50, P2Y2): 640 ± 250 nM
EC50 ([9]; read-out: Compound-induced activation of [Ca2+] EC50, P2Y4): 480 ± 310 nM
Molecule: O=c1ccn([C@@H]2O[C@H](COP(=O)(O)OP(=O)(O)OP(=O)(O)O)[C@@H](O)[C@H]2O)c(=O)[nH]1 [UTP, reference compound]

Molecule: Nc1ncnc2c1ncn2[C@@H]1O[C@H](COP(=O)(O)OP(=O)(O)CP(=O)(O)O)[C@@H](O)[C@H]1O [β,γ-CH2-ATP]
degradation by ecto-nucleotidases [5]: no degradation
